Like-named read-outs stand apart in the source and are kept apart here.

What is called LD50 is the dose at which mortality reaches 50%. Low values mean a more toxic substance, high ones a less toxic substance. The inhibition is the change of the read-out against control, counted positive when it falls.

Data set [1] in a line: LD50 oral, acute toxicity. The note with it: mouse, in vivo; oral administration; mice.
Data set [2] concerns hypotension (H), tachycardia (T), and positive inotropism (I^+) induced by isoprenaline. As to the kind of experiment: Cardiovascular parameters: modification of isoprenaline-induced hypotension, tachycardia and positive inotropism. The class given is in vivo, chloralised dogs. The note with it: Canis lupus familiaris. The method, then:
Experiments were carried out on chloralised dogs: these consisted of measuring, as a percentage relative to the […] of reference animals, the modifications caused by the products of the invention, administered in a proportion of 5mg/kg by intravenous route, on hypotension (H), tachycardia (T), and positive inotropism (I^+) induced by isoprenaline previously administered in a proportion of 0.5μg/kg by intravenous route.

The test system of data set [3] is mice. Put plainly: Supramaximal electrical shock test (corneal electrodes). The class given is in vivo. The note with it: Mus musculus, po, P.O., dose which protects 50% of the animals from tonic tension, read-out: ED 50 ELECTROSHOCK
For data set [4], the system named is depletion of serotonin (5HT) induced by H75/12. As to the kind of experiment: Test using H75/12: inhibition of serotonin depletion. The class given is in vivo. The note with it: Mus musculus, ip, 30 min before H75/12, mice, read-out: Percentage of inhibition of depletion on 5 HT; for inhibition at 40 mg/kg: 40 mg/kg I.P.; for inhibition at 10 mg/kg: 10 mg/kg I.P.; for inhibition at 30 mg/kg: 30 mg/kg I.P.; for inhibition at 20 mg/kg: 20 mg/kg I.P. The method, then:
In the experiments carried out, the H 75/12 was administered on two occasions with an interval of two hours between them, in a proportion of 100mg/kg by intraperitoneal method.
In Table I hereafter, the first figure represents the first dose in mg/kg by intraperitoneal method, of the product according to the invention, administered thirty minutes before the injection of H75/12, and the second figure represents the percentage of inhibition of the depletion of serotonin in relation to a reference batch which has received only H75/12. The compounds signified by Compound Nos. 1-14 in Table 1 are indicated hereafter in Table II.

Setting [5] is: 5 mg/kg intravenous, isoprenaline 0.5 μg/kg intravenous, chloralised dogs, read-out: Cardiovascular parameters, H (hypotension).
The mark [6] stands for this setting: 5 mg/kg intravenous, isoprenaline 0.5 μg/kg intravenous, chloralised dogs, read-out: Cardiovascular parameters, I^+ (positive inotropism).
Where [7] appears, read: 5 mg/kg intravenous, isoprenaline 0.5 μg/kg intravenous, chloralised dogs, read-out: Cardiovascular parameters, T (tachycardia).

Turning to `CC(C)NC1CCCC(Oc2cccc(Cl)c2)C1O` (stereo not shown) [Compound No. 1, 2-hydroxy-3-(3'-chloro-phenoxy)-N-isopropyl-cyclohexylamine], the LD50 in data set [1] is 588 mg/kg. The change in vivo at 5 mg/kg in data set [2] (setting [5]), in data set [2] (setting [6]) and in data set [2] (setting [7]) was 0% throughout. The ED50 in data set [3] came out at 100 mg/kg. For the same compound, the inhibition at 40 mg/kg in data set [4] came to 99%.

Regarding `CC(C)NCC(O)COc1cccc2ccccc12` (stereo not shown) [PROPRANOLOL, propranolol, reference compound], the change in vivo at 5 mg/kg in data set [2] (iv, read-out: Cardiovascular parameters, H (hypotension)) is -100%; in data set [2] (iv, read-out: Cardiovascular parameters, I^+ (positive inotropism)), -98%; in data set [2] (iv, read-out: Cardiovascular parameters, T (tachycardia)) it was -92%.

Regarding `CC(C)NC1CCCC(Oc2ccc(Cl)cc2)C1O` (stereo not shown) [compound 2], the values for the change in vivo at 5 mg/kg in data set [2] (setting [5]), in data set [2] (setting [6]) and in data set [2] (setting [7]) were 30%, -15% and -20%, respectively. In data set [3], the ED50 was 300 mg/kg. Besides, the inhibition at 40 mg/kg in data set [4] was determined as 42%.

Consider `CC(C)CNC1CCCC(Oc2ccc(Cl)cc2)C1O` (stereo not shown) [compound 3], for which the change in vivo at 5 mg/kg in data set [2] (setting [5]), in data set [2] (setting [6]) and in data set [2] (setting [7]) was 0% in each case. Also, in data set [3], the ED50 came to 100 mg/kg. In addition, the inhibition at 10 mg/kg in data set [4] was determined as 30%.

As for `CC(C)CCNC1CCCC(Oc2ccc(Cl)cc2)C1O` (stereo not shown) [compound 4], the change in vivo at 5 mg/kg in data set [2] (setting [5]), in data set [2] (setting [6]) and in data set [2] (setting [7]) was 0% throughout. In addition, the ED50 in data set [3] was found to be 25 mg/kg. The inhibition at 10 mg/kg in data set [4] stood at 59%.

On to `CC(C)NC1CCCC(Oc2ccccc2)C1O` (stereo not shown) [compound 5], for which the change in vivo at 5 mg/kg in data set [2] (setting [5]) is 0%; in data set [2] (setting [6]) it was 25%; in data set [2] (setting [7]), -39%. Also, the inhibition at 40 mg/kg in data set [4] is 26%.

As to `CC(C)NC1CCCC(Oc2cccc(C(F)(F)F)c2)C1O` (stereo not shown) [compound 6], the change in vivo at 5 mg/kg was -18% in data set [2] (setting [5]), 0% in data set [2] (setting [6]) and -20% in data set [2] (setting [7]). Also, the ED50 in data set [3] was under 100 mg/kg. Moreover, the inhibition at 40 mg/kg in data set [4] came out at 74%.

As to `CC(C)CCNC1CCCC(Oc2cccc(C(F)(F)F)c2)C1O` (stereo not shown) [compound 7], the values for the change in vivo at 5 mg/kg in data set [2] (setting [5]), in data set [2] (setting [6]) and in data set [2] (setting [7]) were -50%, -38% and -50%, respectively. In addition, the ED50 in data set [3] turned out to be 30 mg/kg. For the same compound, the inhibition at 30 mg/kg in data set [4] turned out to be 93%.

For the compound `CC(C)NC1CCCC(Oc2ccc(F)cc2)C1O` (stereo not shown) [compound 8], the change in vivo at 5 mg/kg in data set [2] (setting [5]) was 0%; in data set [2] (setting [6]) it was -27%; in data set [2] (setting [7]) it was -10%. For the same compound, in data set [3], the ED50 was found to be 200 mg/kg. Further, in data set [4], the inhibition at 40 mg/kg is 59%.

In the case of `CN(C)C1CCCC(Oc2ccc(F)cc2)C1O` (stereo not shown) [compound 9], the change in vivo at 5 mg/kg in data set [2] (setting [5]) stood at 30%; in data set [2] (setting [6]) it was 25%; in data set [2] (setting [7]), 9%. The ED50 in data set [3] was determined as 250 mg/kg. Moreover, in data set [4], the inhibition at 20 mg/kg turned out to be 18%.

With `CCCCNC1CCCC(Oc2cccc(Cl)c2)C1O` (stereo not shown) [compound 10], the change in vivo at 5 mg/kg in data set [2] (setting [5]), in data set [2] (setting [6]) and in data set [2] (setting [7]) was 0% in each case. The ED50 in data set [3] was determined as 80 mg/kg. Moreover, in data set [4], the inhibition at 30 mg/kg was 92%.

In the case of `CC(Cc1ccccc1)NC1CCCC(Oc2ccccc2)C1O` (stereo not shown) [compound 11], the change in vivo at 5 mg/kg in data set [2] (setting [5]) was 0%; in data set [2] (setting [6]) it was -10%; in data set [2] (setting [7]), -60%. Further, the inhibition at 40 mg/kg in data set [4] turned out to be 118%.

With `CC(Cc1ccccc1)NC1CCCC(Oc2ccc(F)cc2)C1O` (stereo not shown) [compound 12], the figures for the change in vivo at 5 mg/kg in data set [2] (setting [5]), in data set [2] (setting [6]) and in data set [2] (setting [7]) were 35%, 0% and -35%, respectively. In data set [3], the ED50 was under 50 mg/kg. Further, the inhibition at 20 mg/kg in data set [4] worked out at 120%.

For the compound `NC1CCCC(Oc2ccc(Cl)cc2)C1O` (stereo not shown) [compound 13], the change in vivo at 5 mg/kg in data set [2] (setting [5]), in data set [2] (setting [6]) and in data set [2] (setting [7]) was 0% each time. The inhibition at 40 mg/kg in data set [4] came to 62%.

Regarding `CN(C)C1CCCC(Oc2ccc(Cl)cc2)C1O` (stereo not shown) [compound 14], the change in vivo at 5 mg/kg in data set [2] (setting [5]), in data set [2] (setting [6]) and in data set [2] (setting [7]) was 0% each time. Further, the inhibition at 40 mg/kg in data set [4] came out at 38%.

(Values after patent US4008329A, “Substituted cyclohexanes, pharmaceutical compositions containing them and method of treatment involving their use” (priority 1974, dated 1977).)
